In ChEMBL document CHEMBL1150138, “The isolation of two new chromone derivatives from the New Zealand fungus Tolypocladium extinguens” (2002):
In brackets after ≈: the same amount, converted by molar mass. Activity calls are given as the source filed them. No cut-off for these calls is given here.

What was measured:
Escherichia coli = experiment: Antimicrobial activity against Escherichia coli by disk susceptibility test; assay type: functional, organism-based
Bacillus subtilis = experiment: Antimicrobial activity against Bacillus subtilis by disk susceptibility test; assay type: functional, organism-based
Candida albicans = experiment: Antimicrobial activity against Candida albicans by disk susceptibility test; assay type: functional, organism-based
[1] = system: Trichophyton mentagrophytes; experiment: Antimicrobial activity against Trichophyton mentagrophytes by disk susceptibility test; assay type: functional, organism-based
Pseudomonas aeruginosa = experiment: Antimicrobial activity against Pseudomonas aeruginosa by disk susceptibility test; assay type: functional, organism-based
Amorphotheca resinae = experiment: Antimicrobial activity against Cladosporium resinae by disk susceptibility test; assay type: functional, organism-based
P388 = experiment: Cytotoxicity against mouse P388 cells after 1 to 11 days by MTT assay; assay type: functional; details: read-out: ID50 (the source's name)

## COc1cc2oc(C)cc(=O)c2c(O)c1CO
Escherichia coli
  Activity: inactive
Bacillus subtilis
  Activity: inactive
Candida albicans
  Activity: inactive
[1]
  Activity: inactive
Pseudomonas aeruginosa
  Activity: inactive
Amorphotheca resinae
  Activity: inactive

## COCc1c(OC)cc2oc(C)cc(=O)c2c1O
Escherichia coli
  Activity: inactive
Bacillus subtilis
  Activity: inactive
Candida albicans
  Activity: inactive
[1]
  Activity: inactive
Pseudomonas aeruginosa
  Activity: inactive
P388
  IC50: 6 µg/mL (≈ 24 µM)
Amorphotheca resinae
  Activity: inactive

## COCc1c(OC)cc2oc(CO)cc(=O)c2c1O
Escherichia coli
  Activity: inactive
Bacillus subtilis
  Activity: inactive
Candida albicans
  Activity: inactive
[1]
  Activity: inactive
Pseudomonas aeruginosa
  Activity: inactive
Amorphotheca resinae
  Activity: inactive
